This passage reports IC50 and EC50 results from patent publication US9115151B2, “Substituted 2,10-dihydro-9-oxa-1,2,4A-triazaphenanthren-3-ones and uses thereof” (AbbVie Inc., priority 2012, dated 2015).

One test deals with T1, PKCθ (Homo sapiens, UniProt Q04759).
T1 construct: His6; purchased Millipore; host or cells: baculovirus in Sf21 cells
In words: In vitro enzyme assay (time-resolved fluorescence kinase assay), PKCθ, 100 μM ATP. It counts as biochemical. The procedure:
(§1) PKC kinase activity was assayed by time-resolved fluorescence in vitro kinase assay. Unless otherwise indicated, all reagents used for enzyme assays were obtained from Sigma. Specifically, 5 μL N- or C-terminal His6-tagged, recombinant, human PKC, expressed by baculovirus in Sf21 cells (Millipore) was mixed with 5 μL inhibitor (various concentrations, 5% final DMSO), 5 μL Bio-cdc peptide (Biotin-Ahx-[…], 2 μM final concentration, New England Peptide) and 5 μL of ATP (100 μM or 1000 μM final concentration) in 1× reaction buffer, 20 μL final volume.
(§2) Following a sixty minute incubation at room temperature, the reaction was quenched with 5 μL of 0.5 M EDTA pH 7.5.
(§3) Background counts from a minus enzyme control is subtracted from all data. Data (after background correction) are converted to percent activity by dividing by the signal obtained from PKC without drug sample.

The target of the next test is T2, PKCα (Homo sapiens, UniProt P17252).
T2 construct: His6; purchased Millipore; host or cells: baculovirus in Sf21 cells
Nature of the test: In vitro enzyme assay (time-resolved fluorescence kinase assay), PKCα, 100 μM ATP. The conditions noted are these: 100 μM ATP; read-out: PKCα enzyme IC50. It counts as biochemical. The procedure: as §1, §2, §3

In test [1] the test system is CD3/CD28 induced IL-2 in human T-Blasts. Nature of the test: T-Blasts CD3/CD28 induced IL-2 assay. Particulars: read-out: CD3/CD28-stimulated IL2 in T-blasts EC50. It counts as cell-based. How it is done: T-Blasts CD3/CD28 Induced IL-2 Assay
Human T-Blasts are generated using PHA following standard protocols. T-Blasts are freeze aliquoted and vials thawed as required. […] Seed 2×10^5/100 μL cell suspension per well in flat bottomed 96 well plate. Compound dilutions are prepared from 100% DMSO stocks. A total of 8 serial dilutions are made (1/3 in 100% DMSO). Compounds are diluted 1/50 in growth medium to prepare 4× stocks of each tested concentration. 50 μL from each 4× stock concentration is added to the 100 μL cell suspension and incubated for 30 minutes prior stimulus addition. A 4× stimulus stock is prepared using anti-CD3+anti-CD28 antibodies. Antibody mix is added to the cell/compounds suspension in 50 μL at 5 μg/mL final concentration. Compounds are tested in duplicates. Plates are transferred to 37° C./CO2 incubator for 24 hours. After incubation 130 μL of supernatant is collected for IL-2 determination while MTT toxicity analysis is performed on remaining cells/medium.

Structures can show the parent of a compound that is named as a salt.

T1 sequence (Q04759 whole entry): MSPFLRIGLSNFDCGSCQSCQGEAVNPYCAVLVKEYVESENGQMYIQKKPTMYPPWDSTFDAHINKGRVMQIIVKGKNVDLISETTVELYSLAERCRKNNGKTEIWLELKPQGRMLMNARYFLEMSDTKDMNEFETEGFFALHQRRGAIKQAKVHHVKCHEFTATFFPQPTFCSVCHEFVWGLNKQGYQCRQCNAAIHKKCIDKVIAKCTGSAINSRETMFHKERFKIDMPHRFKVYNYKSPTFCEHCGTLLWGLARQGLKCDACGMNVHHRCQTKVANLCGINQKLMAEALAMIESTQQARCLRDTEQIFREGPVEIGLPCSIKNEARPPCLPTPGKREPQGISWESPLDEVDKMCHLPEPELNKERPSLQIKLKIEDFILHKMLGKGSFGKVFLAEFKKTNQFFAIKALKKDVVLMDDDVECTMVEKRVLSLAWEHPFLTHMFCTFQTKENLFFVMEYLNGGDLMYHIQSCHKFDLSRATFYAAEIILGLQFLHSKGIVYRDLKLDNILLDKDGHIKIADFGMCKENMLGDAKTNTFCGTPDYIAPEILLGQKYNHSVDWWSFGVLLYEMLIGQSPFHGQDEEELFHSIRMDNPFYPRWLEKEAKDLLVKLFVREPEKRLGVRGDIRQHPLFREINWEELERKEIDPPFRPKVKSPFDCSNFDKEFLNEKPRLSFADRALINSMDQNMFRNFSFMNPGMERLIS

Regarding `C[C@@H]1C(=O)NN=C2COc3cc4c(cc3N21)N([C@H]1CCNC1)CC4` [Example 154, (R)-1-Methyl-10-(S)-pyrrolidin-3-yl-3,5,9,10-tetrahydro-8H-6-oxa-3,4,10,11b-tetraaza-cyclopenta[b]phenanthren-2-one hydrochloric acid], the IC50 – broadly, the midpoint of a concentration-inhibition curve – at PKCθ was less than 0.25 µM; on PKCα it was 1 to 10 µM. Further, the EC50 in test [1] was 0.25 to 1 µM.
For `Cc1cc2c(cc1C1CCNCC1)N1C(=NNC(=O)C1C)CO2` (stereo not drawn) [Example 75, 4,7-Dimethyl-6-piperidin-4-yl-2,10-dihydro-9-oxa-1,2,4a-triaza-phenanthren-3-one trifluoroacetic acid] the same measures were less than 0.25 µM, 1 to 10 µM and 0.25 to 1 µM.
As to `C[C@@H]1CNCCN1c1cc2c(cc1-c1ccccc1F)OCC1=NNC(=O)[C@@H](C)N12` [Example 223], the figures for the half-maximal inhibitory concentration (IC50) on PKCθ and on PKCα were less than 0.25 µM and 0.25 to 1 µM, respectively. Moreover, the EC50 in test [1] was less than 0.25 µM.
As to `CC1CNCCC1c1ccc2c(c1)N1C(=NNC(=O)C1C)CO2` (stereo not drawn) [Example 73], the figures for the IC50 against PKCθ and on PKCα were 0.25 to 1 µM and 1 to 10 µM, respectively. Moreover, in test [1], the EC50 is 1 to 10 µM.
Take `CC1C(=O)NN=C2COc3cc(-c4ccccc4)c(N(C)C4(C)CNC4)cc3N21` (stereo not drawn) [Example 90]: the IC50 against PKCθ and at PKCα was less than 0.25 µM throughout. In test [1], the EC50 was less than 0.25 µM.
As to `CC1C(=O)NN=C2COc3cc(-c4ccccc4)c(N(C)C4(C)CN(CC5CCOCC5)C4)cc3N21` (stereo not drawn) [Example 95], the results for the IC50 against PKCθ and on PKCα were less than 0.25 µM and 0.25 to 1 µM, respectively. In test [1], the EC50 was less than 0.25 µM.
On to `CC1C(=O)NN=C2COc3cc(C4CC4)c(C4CCNCC4)cc3N21` (stereo not drawn) [Example 77, 7-Cyclopropyl-4-methyl-6-piperidin-4-yl-2,10-dihydro-9-oxa-1,2,4a-triaza-phenanthren-3-one trifluoroacetic acid], for which the concentration for half-maximal inhibition (IC50) at PKCθ was less than 0.25 µM; at PKCα, 1 to 10 µM. Besides, the EC50 in test [1] was in the range of 0.25 to 1 µM.
For `COc1cccc(-c2cc3c(cc2NC2CNC2)N2C(=NNC(=O)C2C)CO3)c1` (racemic) [Example 20] the same measures were less than 0.25 µM, 1 to 10 µM and less than 0.25 µM.
For `CC1C(=O)NN=C2COc3ccc(OC4(C)CNC4)cc3N21` (stereo not drawn) [Example 69, 4-Methyl-6-(3-methyl-azetidin-3-yloxy)-2,10-dihydro-9-oxa-1,2,4a-triaza-phenanthren-3-one trifluoroacetic acid], the IC50 against PKCθ was less than 0.25 µM; at PKCα, 1 to 10 µM. The EC50 in test [1] is less than 0.25 µM.
As for `C[C@@H]1C(=O)NN=C2COc3cc(-c4ccccc4Cl)c(N(C)C4(C)CN(C)C4)cc3N21` [Example 177], the IC50 was less than 0.25 µM at PKCθ and 0.25 to 1 µM on PKCα. The EC50 in test [1] was less than 0.25 µM.
Take `C[C@@H]1C(=O)NN=C2COc3cc([C@H](C)C(F)(F)F)c(NC4CNC4)cc3N21` [Example 62]: the IC50 on PKCθ is less than 0.25 µM; on PKCα, 1 to 10 µM. Also, the EC50 in test [1] is 0.25 to 1 µM.
For the compound `CC[C@@H]1CN(C)CCN1c1cc2c(cc1-c1ccccc1F)OCC1=NNC(=O)[C@@H](C)N12` [Example 233], the 50% inhibitory concentration (IC50) against PKCθ was less than 0.25 µM; on PKCα, 0.25 to 1 µM. For the same compound, the EC50 in test [1] was less than 0.25 µM.
As for `C[C@@H]1C(=O)NN=C2COc3cc(-c4ccc(F)cc4F)c([C@@H]4CCN(C)C[C@@H]4C)cc3N21` [Example 238], the IC50 against PKCθ and at PKCα was less than 0.25 µM each time. The EC50 in test [1] is less than 0.25 µM.
`CC(C)c1cc2c(cc1OC1(C)CNC1)N1C(=NNC(=O)[C@@H]1C)CO2` (single isomer, unassigned) [Example 121-1, trifluoroacetic acid]: the half-maximal inhibitory concentration (IC50) against PKCθ was less than 0.25 µM; at PKCα, 1 to 10 µM. Also, in test [1], the EC50 is 0.25 to 1 µM.
In the case of `CCc1cn(C2(C)CNC2)c2cc3c(cc12)OCC1=NNC(=O)[C@@H](C)N13` [Example 156, (R)-8-Ethyl-1-methyl-10-(3-methyl-azetidin-3-yl)-3,5-dihydro-10H-6-oxa-3,4,10,11b-tetraaza-cyclopenta[b]phenanthren-2-one hydrochloride], the results for the IC50 on PKCθ and at PKCα were less than 0.25 µM and 1 to 10 µM, respectively. For the same compound, the EC50 in test [1] lay within 0.25 to 1 µM.
For the compound `Cc1cc2c(cc1NC1CNC1)N1C(=NNC(=O)[C@H]1C)CO2` (single isomer, unassigned) [Example 54-1, trifluoroacetic acid], the results for the concentration for half-maximal inhibition (IC50) on PKCθ and on PKCα were less than 0.25 µM and 1 to 10 µM, respectively. Moreover, the EC50 in test [1] lay in the range of 0.25 to 1 µM.
The matching figures for `C[C@@H]1C(=O)NN=C2COc3cc(-c4ccccc4F)c(NC4CNC4)cc3N21` [Example 3]: less than 0.25 µM, 1 to 10 µM and less than 0.25 µM.
Take `CC1C(=O)NN=C2COc3cc(-c4ccccc4)c(N(C)C4(C)CN(Cc5ccccc5)C4)cc3N21` (stereo not drawn) [Example 92]: the IC50 is less than 0.25 µM against PKCθ and 0.25 to 1 µM at PKCα. The EC50 in test [1] is less than 0.25 µM.
As to `C[C@H](c1ccc2c(c1)N1C(=NNC(=O)[C@H]1C)CO2)C1CNC1` [Example 110], the IC50 on PKCθ lay in the range of 0.25 to 1 µM; at PKCα, 1 to 10 µM. Also, the EC50 in test [1] is 0.25 to 1 µM.
For the compound `C[C@@H]1C(=O)NN=C2COc3cc4ccn(C5(C)CNC5)c4cc3N21` [Example 148, (R)-1-Methyl-10-(3-methyl-azetidin-3-yl)-3,5-dihydro-10H-6-oxa-3,4,10,11b-tetraaza-cyclopenta[b]phenanthren-2-one hydrochloride], the IC50 at PKCθ is less than 0.25 µM; at PKCα, 0.25 to 1 µM. The EC50 in test [1] is less than 0.25 µM.
Take `C[C@H]1C(=O)NN=C2COc3cc(-c4ccccc4F)c(N(C)[C@]4(C)CCN(C)C4)cc3N21` (single isomer, unassigned) [Example 198-2]: the IC50 was less than 0.25 µM on PKCθ and 1 to 10 µM at PKCα. For the same compound, in test [1], the EC50 is 1 to 10 µM.
With `C[C@@H]1C(=O)NN=C2COc3cc(-c4ccccc4F)c(N4CCN(C)C[C@@H]4C)cc3N21` [Example 231], the IC50 at PKCθ was less than 0.25 µM; on PKCα it was 0.25 to 1 µM. Besides, the EC50 in test [1] was less than 0.25 µM.
`CC1C(=O)NN=C2COc3cc(C4CCCC4)c(NC4CNC4)cc3N21` (stereo not drawn) [Example 60]: the IC50 was less than 0.25 µM against PKCθ and 1 to 10 µM at PKCα. For the same compound, the EC50 in test [1] lay within 0.25 to 1 µM.
Consider `C[C@@H]1C(=O)NN=C2COc3cc(-c4ccccc4CCO)c(N(C)C4(C)CN(C)C4)cc3N21` [Example 180], for which the figures for the half-inhibitory concentration (IC50) against PKCθ and on PKCα were less than 0.25 µM and 1 to 10 µM, respectively. Further, the EC50 in test [1] is less than 0.25 µM.
With `Cc1ccc(-c2cc3c(cc2NC2CNC2)N2C(=NNC(=O)C2C)CO3)cc1` (racemic) [Example 29], the results for the IC50 against PKCθ and on PKCα were less than 0.25 µM and 1 to 10 µM, respectively. Further, in test [1], the EC50 is less than 0.25 µM.
In the case of `C[C@@H]1C(=O)NN=C2COc3cc(F)c(NC4CNC4)cc3N21` (single isomer, unassigned) [Example 56-2, trifluoroacetic acid], the IC50 against PKCθ was less than 0.25 µM; on PKCα, 1 to 10 µM. Also, in test [1], the EC50 was less than 0.25 µM.
As to `C[C@@H]1C(=O)NN=C2COc3cc(-c4ccc(F)cc4)c(NC4CNC4)cc3N21` [Example 9], the IC50 was less than 0.25 µM on PKCθ and 1 to 10 µM at PKCα. Also, the EC50 in test [1] was less than 0.25 µM.
Regarding `C[C@@H]1C(=O)NN=C2COc3cc4ccn([C@H]5CCNC5)c4cc3N21` [Example 151-1, (R)-1-Methyl-10-(S)-pyrrolidin-3-yl-3,5-dihydro-10H-6-oxa-3,4,10,11b-tetraaza-cyclopenta[b]phenanthren-2-one hydrochloric acid], the IC50 on PKCθ is less than 0.25 µM; on PKCα, 0.25 to 1 µM. In test [1], the EC50 was less than 0.25 µM.
`C[C@H]1C(=O)NN=C2COc3cc(C4CC4)c(NC4CNC4)cc3N21` (single isomer, unassigned) [Example 64-2, trifluoroacetic acid]: the IC50 lay within 0.25 to 1 µM on PKCθ and 1 to 10 µM at PKCα. Also, the EC50 in test [1] lay in the range of 1 to 10 µM.
Consider `C[C@@H]1CN(CCO)CC[C@@H]1c1cc2c(cc1-c1ccccc1F)OCC1=NNC(=O)[C@@H](C)N12` [Example 207], for which the results for the IC50 on PKCθ and at PKCα were less than 0.25 µM and 1 to 10 µM, respectively. Also, the EC50 in test [1] lay within 0.25 to 1 µM.
The matching figures for `CC1C(=O)NN=C2COc3cc(-c4ccccc4)c(NC4CNC4)cc3N21` (racemic) [Example 51]: less than 0.25 µM, 1 to 10 µM and 0.25 to 1 µM.
`C[C@@H]1C(=O)NN=C2COc3cc(-c4ccc(F)cc4F)c(N(C)C4(C)CN(C)C4)cc3N21` [Example 178]: the IC50 at PKCθ was less than 0.25 µM; at PKCα, 0.25 to 1 µM. The EC50 in test [1] is less than 0.25 µM.
As for `C[C@@H]1C(=O)NN=C2COc3cc(-c4ccc(Cl)cc4Cl)c(NC4CNC4)cc3N21` [Example 8], the half-inhibitory concentration (IC50) is less than 0.25 µM against PKCθ and 1 to 10 µM on PKCα. Besides, the EC50 in test [1] was less than 0.25 µM.
